# Experimental data as given in patent US11579088B2, “Device and method for imaging shortwave infrared fluorescence” (Massachusetts Institute of Technology, priority 2016, dated 2023).
# System: liver
# Assay: Detection of indocyanine green across SWIR wavelengths in vivo (hepatobiliary clearance)
# Settings: mouse, intravenous 1.7 mg/kg, SWIR fluorescence detection
# Protocol: When injected into a living system, indocyanine green is metabolized by the liver and excreted by the liver and bile ducts by a process called hepatobiliary clearance. This process was observed, noninvasively, by injecting a solution of indocyanine green intravenously into a mouse and using an SWIR imaging system as described herein to observe the fluorescence of indocyanine green. The dye was injected at a dose of 1.7 mg/kg which is below the maximum recommended dose of indocyanine green in humans. […] Despite the fact that 1500 nm is far from the peak emission of indocyanine green, there is sufficient emission intensity from the tail of the emission peak in this wavelength region to obtain a SWIR fluorescence image. Separately, hepatobiliary excretion of ICG into the small intestine in a mouse was also imaged using a near video rate imaging of 19.7 frames per second using a 1200 nm long-pass filter, which enabled capturing the peristaltic movements of the small intestine. Although the frame rate was slower, 2.0 frames per second, it was possible to image the ICG clearance using a 1500 nm long-pass filter, capturing wavelengths between roughly 1500 and 1620 nm.
smiles,measurement,value
"CC1(C)C(/C=C/C=C/C=C/C=C2\N(CCCCS(=O)(=O)O)c3ccc4ccccc4c3C2(C)C)=[N+](CCCCS(=O)(=O)[O-])c2ccc3ccccc3c21 [ICG, indocyanine green]",accumulation in the liver,observed
